Experimental data taken from ChEMBL document CHEMBL4043088, “Design of novel HIV-1 protease inhibitors incorporating isophthalamide-derived P2-P3 ligands: Synthesis, biological evaluation and X-ray structural studies of inhibitor-HIV-1 protease complex” (Bioorg Med Chem, 2017).

molecular target: not listed separately; test: Inhibition of HIV1 protease using fluorogenic substrate by continuous fluorometric assay; set-up: species or system Human immunodeficiency virus 1; settings: not given

Compound | Ki [nM]
COc1ccc(S(=O)(=O)N(CC(C)C)C[C@@H](O)[C@H](Cc2ccccc2)NC(=O)c2cccc(C(=O)N(C)Cc3nc(C)oc3C)c2)cc1 | 0.21
COc1ccc(S(=O)(=O)N(CC(C)C)C[C@@H](O)[C@H](Cc2ccccc2)NC(=O)c2cccc(C(=O)N(C)Cc3nc(C)co3)c2)cc1 | 0.63
CNc1cc(C(=O)N[C@@H](Cc2ccccc2)[C@H](O)CN(CC(C)C)S(=O)(=O)c2ccc(OC)cc2)cc(C(=O)N(C)Cc2nc(C)oc2C)c1 | 5.08
COc1ccc(S(=O)(=O)N(CC(C)C)C[C@@H](O)[C@H](Cc2ccccc2)NC(=O)c2ccc(C(=O)N(C)Cc3nc(C)oc3C)cc2)cc1 | 70
COc1ccc(S(=O)(=O)N(CC(C)C)C[C@@H](O)[C@H](Cc2ccccc2)NC(=O)c2cccc(C(=O)N(C)Cc3csc(C)n3)c2)cc1 | 0.107
COc1ccc(S(=O)(=O)N(CC(C)C)C[C@@H](O)[C@H](Cc2ccccc2)NC(=O)c2ccccc2C(=O)N(C)Cc2nc(C)oc2C)cc1 | 629
COc1ccc(S(=O)(=O)N(CC(C)C)C[C@@H](O)[C@H](Cc2ccccc2)NC(=O)c2cccc(C(=O)N3CCC[C@H]3c3nc(C)cs3)c2)cc1 | 30.8
COc1ccc(S(=O)(=O)N(CC(C)C)C[C@@H](O)[C@H](Cc2ccccc2)NC(=O)c2cccc(C(=O)N3CCC[C@@H]3c3nc(C)cs3)c2)cc1 | 0.025
Cc1csc([C@H]2CCCN2C(=O)c2cccc(C(=O)N[C@@H](Cc3ccccc3)[C@H](O)CN(CC(C)C)S(=O)(=O)c3ccc(CO)cc3)c2)n1 | 0.79
COc1ccc(S(=O)(=O)N(CC(C)C)C[C@@H](O)[C@H](Cc2ccccc2)NC(=O)c2cncc(C(=O)N3CCC[C@@H]3c3nc(C)cs3)c2)cc1 | 2.5
COc1ccc(S(=O)(=O)N(CC(C)C)C[C@@H](O)[C@H](Cc2ccccc2)NC(=O)c2cccc(C(=O)N(C)Cc3coc(C)n3)c2)cc1 | 0.64
COc1ccc(S(=O)(=O)N(CC(C)C)C[C@@H](O)[C@H](Cc2ccccc2)NC(=O)c2cccc(C(=O)N3CCCC[C@@H]3c3nc(C)cs3)c2)cc1 | 0.53
COc1ccc(S(=O)(=O)N(CC(C)C)C[C@@H](O)[C@H](Cc2ccccc2)NC(=O)c2cccc(C(=O)N3CC[C@H](c4nc(C)cs4)C3)c2)cc1 | 0.4
COCc1coc([C@H]2CCCN2C(=O)c2cccc(C(=O)N[C@@H](Cc3ccccc3)[C@H](O)CN(CC(C)C)S(=O)(=O)c3ccc(OC)cc3)c2)n1 | 0.8
Cc1csc([C@H]2CCCN2C(=O)c2cccc(C(=O)N[C@@H](Cc3ccccc3)[C@H](O)CN(CC(C)C)S(=O)(=O)c3ccc(N)cc3)c2)n1 | 1.61
COc1ccc(S(=O)(=O)N(CC(C)C)C[C@@H](O)[C@H](Cc2ccccc2)NC(=O)c2cccc(CN3CCC[C@@H]3c3nc(C)cs3)c2)cc1 | 23.6
COc1ccc(S(=O)(=O)N(CC(C)C)C[C@@H](O)[C@H](Cc2ccccc2)NC(=O)c2cccc(C(=O)N3CSC[C@@H]3c3nc(C)cs3)c2)cc1 | 0.76
COc1ccc(S(=O)(=O)N(CC(C)C)C[C@@H](O)[C@H](Cc2ccccc2)NC(=O)c2cc(O)cc(C(=O)N(C)Cc3nc(C)oc3C)c2)cc1 | 0.51
COc1ccc(S(=O)(=O)N(CC(C)C)C[C@@H](O)[C@H](Cc2ccccc2)NC(=O)c2cccc(C(=O)N3CC[C@@H](c4nc(C)cs4)C3)c2)cc1 | 0.49
COc1ccc(S(=O)(=O)N(CC(C)C)C[C@@H](O)[C@H](Cc2ccccc2)NC(=O)c2cccc(C(=O)N3CCC[C@@H]3c3nc(C)co3)c2)cc1 | 0.41

tested on: Human immunodeficiency virus 1; test: Antiviral activity against HIV1 LAI infected in human MT2 cells assessed as reduction in p24 Gag protein production incubated for 6 days by automated chemiluminescent enzyme immunoassay; assay type: functional, cell-based; settings: Human immunodeficiency virus 1, LAI, MT2, 144 h

Compound | IC50 [nM]
COc1ccc(S(=O)(=O)N(CC(C)C)C[C@@H](O)[C@H](Cc2ccccc2)NC(=O)c2cccc(C(=O)N(C)Cc3nc(C)oc3C)c2)cc1 | 31
COc1ccc(S(=O)(=O)N(CC(C)C)C[C@@H](O)[C@H](Cc2ccccc2)NC(=O)c2cccc(C(=O)N(C)Cc3nc(C)co3)c2)cc1 | 581
CNc1cc(C(=O)N[C@@H](Cc2ccccc2)[C@H](O)CN(CC(C)C)S(=O)(=O)c2ccc(OC)cc2)cc(C(=O)N(C)Cc2nc(C)oc2C)c1 | 600
COc1ccc(S(=O)(=O)N(CC(C)C)C[C@@H](O)[C@H](Cc2ccccc2)NC(=O)c2ccc(C(=O)N(C)Cc3nc(C)oc3C)cc2)cc1 | > 1000
COc1ccc(S(=O)(=O)N(CC(C)C)C[C@@H](O)[C@H](Cc2ccccc2)NC(=O)c2cccc(C(=O)N(C)Cc3csc(C)n3)c2)cc1 | 32
COc1ccc(S(=O)(=O)N(CC(C)C)C[C@@H](O)[C@H](Cc2ccccc2)NC(=O)c2ccccc2C(=O)N(C)Cc2nc(C)oc2C)cc1 | > 1000
COc1ccc(S(=O)(=O)N(CC(C)C)C[C@@H](O)[C@H](Cc2ccccc2)NC(=O)c2cccc(C(=O)N3CCC[C@H]3c3nc(C)cs3)c2)cc1 | > 1000
COc1ccc(S(=O)(=O)N(CC(C)C)C[C@@H](O)[C@H](Cc2ccccc2)NC(=O)c2cccc(C(=O)N3CCC[C@@H]3c3nc(C)cs3)c2)cc1 | 69
Cc1csc([C@H]2CCCN2C(=O)c2cccc(C(=O)N[C@@H](Cc3ccccc3)[C@H](O)CN(CC(C)C)S(=O)(=O)c3ccc(CO)cc3)c2)n1 | 164
COc1ccc(S(=O)(=O)N(CC(C)C)C[C@@H](O)[C@H](Cc2ccccc2)NC(=O)c2cccc(C(=O)N(C)Cc3coc(C)n3)c2)cc1 | 23
COc1ccc(S(=O)(=O)N(CC(C)C)C[C@@H](O)[C@H](Cc2ccccc2)NC(=O)c2cccc(C(=O)N3CCCC[C@@H]3c3nc(C)cs3)c2)cc1 | 221
COc1ccc(S(=O)(=O)N(CC(C)C)C[C@@H](O)[C@H](Cc2ccccc2)NC(=O)c2cccc(C(=O)N3CC[C@H](c4nc(C)cs4)C3)c2)cc1 | 109
COCc1coc([C@H]2CCCN2C(=O)c2cccc(C(=O)N[C@@H](Cc3ccccc3)[C@H](O)CN(CC(C)C)S(=O)(=O)c3ccc(OC)cc3)c2)n1 | 327
Cc1csc([C@H]2CCCN2C(=O)c2cccc(C(=O)N[C@@H](Cc3ccccc3)[C@H](O)CN(CC(C)C)S(=O)(=O)c3ccc(N)cc3)c2)n1 | 189
COc1ccc(S(=O)(=O)N(CC(C)C)C[C@@H](O)[C@H](Cc2ccccc2)NC(=O)c2cccc(C(=O)N3CSC[C@@H]3c3nc(C)cs3)c2)cc1 | 32
COc1ccc(S(=O)(=O)N(CC(C)C)C[C@@H](O)[C@H](Cc2ccccc2)NC(=O)c2cc(O)cc(C(=O)N(C)Cc3nc(C)oc3C)c2)cc1 | 290
COc1ccc(S(=O)(=O)N(CC(C)C)C[C@@H](O)[C@H](Cc2ccccc2)NC(=O)c2cccc(C(=O)N3CC[C@@H](c4nc(C)cs4)C3)c2)cc1 | 280
COc1ccc(S(=O)(=O)N(CC(C)C)C[C@@H](O)[C@H](Cc2ccccc2)NC(=O)c2cccc(C(=O)N3CCC[C@@H]3c3nc(C)co3)c2)cc1 | 33
